Results published in patent US8597688B2, “Pesticidal mixtures comprising isoxazoline compounds II” (BASF SE, priority 2008, dated 2013).
Read-outs that look alike come from different tables or passages of the source.

What was measured:
Assay type in all cases: cell-based
Septoria tritici = assay: Activity against leaf blotch on wheat caused by Septoria tritici (Septtr), microtiter test; settings: day 7
Pyricularia oryzae = settings: single active compound, Pyrior microtiter test
Phytophthora infestans = settings: day 7
Botrytis cinerea = assay: Activity against the grey mold Botrytis cinerea in the microtiterplate test (Botrci); settings: 7 days

`CO/N=C(/C1=NOCCO1)c1ccccc1Oc1ncnc(Oc2ccccc2Cl)c1F` [Fluoxastrobin, (E)-{2-[6-(2-chlorophenoxy)-5-fluoropyrimidin-4-yloxy]phenyl}(5,6-dihydro-1,4,2-dioxazin-3-yl)methanone O-methyloxime, reference compound] was tested. Which Observed efficacy (Septoria tritici; 0.25 ppm) did it give?
The Observed efficacy was 68%.

How did the Observed efficacy (Pyricularia oryzae; concentration 1 ppm) turn out when `O=C(CNC(=O)c1ccc(C2=NOC(c3cc(Cl)cc(Cl)c3)(C(F)(F)F)C2)c2ccccc12)NCC(F)(F)F` (stereo not drawn) [C.I.402] was run?
The Observed efficacy was 6.

And the Observed efficacy (Pyricularia oryzae; concentration 4 ppm)?
Its Observed efficacy is 35.

And the Observed efficacy (Septoria tritici; 4 ppm)?
Its Observed efficacy is 2%.

And the Observed efficacy (Septoria tritici; 63 ppm)?
The Observed efficacy was 0%.

For `Fc1ccc([C@]2(Cn3cncn3)O[C@H]2c2ccccc2Cl)cc1` [Epoxiconazol], which Observed efficacy (Pyricularia oryzae; concentration 0.063 ppm) is on record?
The Observed efficacy was 0.

For `COC(=O)Nc1nc2ccccc2[nH]1` [Carbendazim], which Observed efficacy (Pyricularia oryzae; concentration 0.25 ppm) is on record?
The Observed efficacy was 18.

Which Observed efficacy (Phytophthora infestans; 0.016 ppm) does the source give for `COC(=O)N(OC)c1ccccc1COc1ccn(-c2ccc(Cl)cc2)n1` [Pyraclostrobin, methyl N-{2-[1-(4-chlorophenyl)-1H-pyrazol-3-yloxymethyl]phenyl}(N-methoxy)carbamate, reference compound] here?
Its Observed efficacy is 13%.

And the Observed efficacy (Pyricularia oryzae; concentration 0.004 ppm)?
Its Observed efficacy is 26.

How did the Observed efficacy (Phytophthora infestans; 4 ppm) turn out when `Cc1cc(C2=NOC(c3cc(Cl)cc(Cl)c3)(C(F)(F)F)C2)ccc1C(=O)NCC(=O)NCC(F)(F)F` (stereo not drawn) [C.I.240] was run?
Its Observed efficacy is 6%.

And the Observed efficacy (Phytophthora infestans; 16 ppm)?
Its Observed efficacy is 15%.

What about the Observed efficacy (Botrytis cinerea; 0.063 ppm) of the same compound?
The Observed efficacy was 0%.

What about the Observed efficacy (Botrytis cinerea; 16 ppm) of the same compound?
The Observed efficacy was 18%.

What about the Observed efficacy (Pyricularia oryzae; concentration 1 ppm) of the same compound?
Its Observed efficacy is 0.

What about the Observed efficacy (Pyricularia oryzae; concentration 4 ppm) of the same compound?
The Observed efficacy was 11.

And the Observed efficacy (Septoria tritici; 4 ppm)?
Its Observed efficacy is 0%.

With `CC(C)OC(=O)N[C@H](C(=O)N[C@H](C)c1nc2ccc(F)cc2s1)C(C)C` [Fubenthiavalicarb (Benthivalicarb), isopropyl {(S)-1-[(1R)-1-(6-fluorobenzothiazol-2-yl)-ethylcarbamoyl]-2-methylpropyl}carbamate, reference compound] as the compound, how does the Observed efficacy (Septoria tritici; 4 ppm) read?
The Observed efficacy was 0%.

`CC1(C(=O)Nc2ccc(O)c(Cl)c2Cl)CCCCC1` [Fenhexamid, N-(2,3-dichloro-4-hydroxyphenyl)-1-methylcyclohexanecarboxamide, reference compound] was tested. Which Observed efficacy (Botrytis cinerea; 0.016 ppm) did it give?
Its Observed efficacy is 51%.

How did the Observed efficacy (Pyricularia oryzae; concentration 0.063 ppm) turn out when `CON=C(C(=O)OC)c1ccccc1CON=C(C)c1cccc(C(F)(F)F)c1` [Trifloxystrobin] was run?
Its Observed efficacy is 32.

Mancozeb was tested. Which Observed efficacy (Pyricularia oryzae; concentration 1 ppm) did it give?
The Observed efficacy was 36.

With `N#Cc1c(Cl)c(Cl)c(Cl)c(C#N)c1Cl` [Chlorothalonil, 2,4,5,6-tetrachloroisophthalonitrile, reference compound] as the compound, how does the Observed efficacy (Phytophthora infestans; 1 ppm) read?
Its Observed efficacy is 53%.

What about the Observed efficacy (Botrytis cinerea; 1 ppm) of the same compound?
The Observed efficacy was 43%.

Which Observed efficacy (Pyricularia oryzae; concentration 0.24 ppm) does the source give for `CC(C)NC(=O)N1CC(=O)N(c2cc(Cl)cc(Cl)c2)C1=O` [Iprodion] here?
The Observed efficacy was 4.

With `CO/C=C(/C(=O)OC)c1ccccc1COc1cccc(C(F)(F)F)n1` [Picoxystrobin] as the compound, how does the Observed efficacy (Pyricularia oryzae; concentration 0.063 ppm) read?
Its Observed efficacy is 60.
